What was measured:
[1] = test system: Monoclonal antibody (mAb) 2D4; assay: Michaelis-Menten's constant of monoclonal antibody, 2D4 for paraoxon hydrolysis determined in 50 mM bicine with 50 mM NaCl, pH 8.0, 5% DMSO cosolvent at 23 degree C
[2] = test system: Monoclonal antibody (mAb) 3C8; assay: Michaelis-Menten constant of monoclonal antibody, 3C8 for paraoxon hydrolysis determined in 50 mM bicine with 50 mM NaCl, pH 8.0, 5% DMSO cosolvent at 23 degree C
[3] = test system: Monoclonal antibody (mAb) 3C8; assay: Ratio of reaction constant of paraoxon hydrolysis catalysed by monoclonal antibody 3C8 to that Michaelis-Menten's constant
[4] = test system: Monoclonal antibody (mAb) 3C8; assay: Ratio of reaction constant of paraoxon hydrolysis catalysed by monoclonal antibody 3C8 to that of uncatalysed
[5] = test system: Monoclonal antibody (mAb) 2D4; assay: Ratio of reaction constant of paraoxon hydrolysis catalysed by monoclonal antibody 2D4 to that of uncatalysed
[6] = test system: Monoclonal antibody (mAb) 2D4; assay: Reaction constant of paraoxon hydrolysis catalyse by monoclonal antibody, 2D4 determined in 50 mM bicine with 50 mM NaCl, pH 8.0, 5% DMSO cosolvent at 23 degree C
[7] = test system: Monoclonal antibody (mAb) 2D4; assay: Ratio of reaction constant of paraoxon hydrolysis catalysed by monoclonal antibody 2D4 to that Michaelis-Menten's constant
[8] = test system: Monoclonal antibody (mAb) 3C8; assay: Reaction constant of paraoxon hydrolysis catalyse by monoclonal antibody, 3C8 determined in 50 mM bicine with 50 mM NaCl, pH 8.0, 5% DMSO cosolvent at 23 degree C

CCOc1c(Nc2ccc(NC(=O)CCCC(=O)O)cc2)c(=O)c1=O
Km [1]: 1180 µM | Km [2]: 1290 µM | k cat/Km [3]: 0.0262 M⁻¹ s⁻¹ | k cat/Kuncat [4]: 2060 | k cat/Kuncat [5]: 2310 | k cat [6]: 3.8e-05 s⁻¹ | k cat/Km [7]: 0.0322 M⁻¹ s⁻¹ | k cat [8]: 3.38e-05 s⁻¹

Reference: ChEMBL document CHEMBL1141058, “Squaric monoamide monoester as a new class of reactive immunization hapten for catalytic antibodies” (Bioorg Med Chem Lett, 2005)
